Experimental data from publication PMC6664820, “Novel natural and synthetic inhibitors of solute carriers SGLT1 and SGLT2” (Pharmacology Research & Perspectives, 2019).

What was measured:
[1] = biological target: T1, SGLT1 (Homo sapiens, UniProt P13866); assay: SGLT1 inhibition assay for validation of screening hits and similar compounds (1‐NBD‐glucose uptake, CHO‐hSGLT1 cells); assay type: cell-based
T1 sequence (P13866 1-664): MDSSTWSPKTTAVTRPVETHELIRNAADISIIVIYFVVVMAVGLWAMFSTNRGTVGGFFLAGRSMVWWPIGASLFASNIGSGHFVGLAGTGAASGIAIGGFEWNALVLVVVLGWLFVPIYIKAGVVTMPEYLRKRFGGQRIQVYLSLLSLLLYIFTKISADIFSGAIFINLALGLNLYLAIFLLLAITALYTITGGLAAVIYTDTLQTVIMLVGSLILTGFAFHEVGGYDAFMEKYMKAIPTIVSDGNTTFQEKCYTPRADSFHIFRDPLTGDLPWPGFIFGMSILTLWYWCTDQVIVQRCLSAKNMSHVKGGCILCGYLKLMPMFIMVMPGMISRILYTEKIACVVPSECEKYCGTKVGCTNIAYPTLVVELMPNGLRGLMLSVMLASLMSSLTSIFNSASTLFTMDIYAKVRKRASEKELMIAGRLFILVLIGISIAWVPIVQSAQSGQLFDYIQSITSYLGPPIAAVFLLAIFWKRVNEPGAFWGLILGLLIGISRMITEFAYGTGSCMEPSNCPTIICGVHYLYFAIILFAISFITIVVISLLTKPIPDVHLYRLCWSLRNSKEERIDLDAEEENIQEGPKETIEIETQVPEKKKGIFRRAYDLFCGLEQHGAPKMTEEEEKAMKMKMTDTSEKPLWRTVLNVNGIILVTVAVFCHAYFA

[2] = biological target: T2, hSGLT2 (Homo sapiens, UniProt P31639); assay: SGLT2 inhibition assay for validation of screening hits and similar compounds (1‐NBD‐glucose uptake, CHO‐hSGLT2 cells); assay type: cell-based; settings: 1‐NBD‐glucose uptake, CHO‐hSGLT2; mean of n biological replicates, or individual measurements where n=2; read-out: SGLT2‐IC50 Mean
T2 sequence (P31639 1-672): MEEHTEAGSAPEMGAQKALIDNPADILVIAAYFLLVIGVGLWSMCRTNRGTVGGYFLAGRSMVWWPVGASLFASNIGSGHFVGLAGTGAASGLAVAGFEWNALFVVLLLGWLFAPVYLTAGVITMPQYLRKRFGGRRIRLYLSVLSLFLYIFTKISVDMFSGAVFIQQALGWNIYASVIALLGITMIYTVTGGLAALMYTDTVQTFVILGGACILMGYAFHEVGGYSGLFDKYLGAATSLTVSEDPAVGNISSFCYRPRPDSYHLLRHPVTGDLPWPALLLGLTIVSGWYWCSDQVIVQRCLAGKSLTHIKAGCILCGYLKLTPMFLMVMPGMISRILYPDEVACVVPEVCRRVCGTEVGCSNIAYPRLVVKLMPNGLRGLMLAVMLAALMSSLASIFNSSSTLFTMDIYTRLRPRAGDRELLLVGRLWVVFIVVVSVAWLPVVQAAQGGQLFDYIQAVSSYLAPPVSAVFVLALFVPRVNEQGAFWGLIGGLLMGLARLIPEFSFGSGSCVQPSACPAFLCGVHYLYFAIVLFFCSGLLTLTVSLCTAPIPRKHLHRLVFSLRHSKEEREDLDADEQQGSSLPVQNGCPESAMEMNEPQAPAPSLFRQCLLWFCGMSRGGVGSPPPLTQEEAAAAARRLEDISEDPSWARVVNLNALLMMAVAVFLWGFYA

[3] = biological target: T1, SGLT1; assay: Cellular uptake and transcellular transport of 14C‐α‐methylglucose by Caco‐2 cell monolayers; assay type: cell-based; design: Caco‐2 cells expressing endogenous SGLT1; host or cells: Caco-2; settings: 90 minutes
Method: Caco‐2 cells (passage numbers 7 and 13) were seeded (29,700 cells) onto polycarbonate Transwell® inserts (6.5 mm diameter and 3.0 μm pores) and cultured for 21‐24 days to obtain differentiated polarized monolayers. Apical and basal medium was refreshed twice a week and the final medium refresh was done the day before the uptake and transport experiment. TransEpithelial Electrical Resistance (TEER) was measured with an EVOM^2 epithelial voltmeter (World Precision Instruments, Sarasota, USA) and inserts were used if TEER > 3000 Ω/cm^2. First, cells were washed twice apically and basally with D‐glucose free DMEM. Then, 100 μL (+)‐pteryxin dilutions (50 μmol/L and 500 μmol/L), P p.‐extract dilutions (1/200 and 1/2000), or 0.5% (v/v) DMSO vehicle control were applied apical in D‐glucose free DMEM with 0.3% (w/v) BSA and 40 nCi/mL ^14C‐α‐methylglucose. The basal acceptor wells (24‐well) contained 350 μL D‐glucose free DMEM with 0.3% (w/v) BSA. Then, cells were incubated in a humidified incubator at 37°C with 5% CO2 for 90 minutes. Inserts were transferred to a clean 24‐well plate and washed once with DMEM (with D‐glucose) and once with HBSS, with 1 mL at the basal and 100 μL at the apical side. Cells were lysed with 100 μL of 0.2 mol/L NaOH for 30 minutes at 37°C and lysates were analyzed by liquid scintillation counting on a Tri‐Carb 2910 TR (Perkin Elmer, Groningen, The Netherlands) to determine cellular ^14C‐α‐methylglucose uptake. Basal media were analyzed accordingly to determine transcellular ^14C‐α‐methylglucose transport. Mean ± SD ^14C‐α‐methylglucose uptake and transport were calculated from two biological replicates, each consisting of four technical replicates.

[4] = biological target: T1, SGLT1; assay: cell-based; design: host or cells: CHO-K1; settings: CHO, read-out: % of control remaining
[5] = biological target: T2, hSGLT2; assay: cell-based; design: host or cells: CHO-K1; settings: CHO, read-out: % of control remaining
[6] = system: CHO‐hSGLT1/2 cells; assay: Cytotoxicity assay (ToxiLight, adenylate kinase leakage into CHO‐SGLT1/2 inhibition assay media); design: CYTOTOXICITY / CY[…], mean / CYTOTOXICITY (% of vehicle control) Mean / CYTOTOXICITY, mean / CY[…] (% of vehicle control) Mean: dose or concentration left out as unconfirmed; settings: mean;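 also: bioluminescent read-out of adenylate kinase released from lysed cells into the medium, given relative to DMSO vehicle control defined as 0%, higher meaning more cytolysis; percent of DMSO vehicle control bioluminescence with vehicle set at 0%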
Method: The cytotoxicity of representative SGLT1/2 inhibitors and compounds from the different chemical clusters was tested. Cytotoxicity was determined using the ToxiLight bioassay kit according to the supplier's instructions. This nondestructive assay measures leakage of the enzyme adenylate kinase (AK) from damaged cells into the CHO‐SGLT1/2 inhibition assay media, ie the degree of cytolysis. […] Next, bioluminescence was measured using a FlexStation 3 Multi‐Mode Microplate Reader (Molecular Devices) by 1 second integrated reading. Cytotoxicity was expressed as the percentage of bioluminescence of the DMSO vehicle control which was set at 0%. If applicable, statistical outliers were determined using Grubbs’ test (alpha = 0.05) and excluded for calculation of the mean ± SD.

Structure (SMILES) | IC50 ([1]; 1‐NBD‐glucose uptake, CHO‐hSGLT1, mean of n biological replicates, or individual measurements where n=2, read-out: SGLT1‐IC50 Mean) [µM] | inhibition at 50 µM ([1]; mean inhibition with 50 μmol/L inhibitor, read-out: SGLT1 inhibition) [%] | IC50 [2] [µM] | Inhibition of 14C‐α‐methylglucose cellular uptake ([3]; Caco‐2, 50 μmol/L) [%] | Inhibition of transcellular transport of 14C‐α‐methylglucose ([3]; Caco‐2, 50 μmol/L) [%] | Inhibition of 14C‐α‐methylglucose cellular uptake ([3]; Caco‐2, 500 μmol/L) [%] | Inhibition of transcellular transport of 14C‐α‐methylglucose ([3]; Caco‐2, 500 μmol/L) [%] | remaining activity at 5 µM [4] [%] | remaining activity at 50 µM [4] [%] | remaining activity at 5 µM [5] [%] | remaining activity at 50 µM [5] [%] | CYTOTOXICITY [6]
CC=C(C)C(=O)OC1c2c(ccc3ccc(=O)oc23)OC(C)(C)C1OC(C)=O (stereo not drawn) [(+)‐pteryxin] | 12 | 89 | 9 | 18 | 37 | 91 | 89 |  |  |  |  | 
C[C@@H]1O[C@@H](O[C@H]2[C@H](O[C@H]3CC[C@@]4(C)[C@@H](CC[C@]5(C)[C@@H]4CC=C4[C@@H]6CC(C)(C)CC[C@]6(C(=O)O[C@@H]6O[C@H](CO[C@@H]7O[C@H](CO)[C@@H](O[C@@H]8O[C@@H](C)[C@H](O)[C@@H](O)[C@H]8O)[C@H](O)[C@H]7O)[C@@H](O)[C@H](O)[C@H]6O)CC[C@]45C)[C@]3(C)CO)OC[C@H](O)[C@@H]2O)[C@H](O)[C@H](O)[C@H]1O [Hederacoside C] |  |  |  |  |  |  |  | 97.9 | 102 | 113 | 115 | -28
CC(=O)OC[C@H]1O[C@@H](O[C@@H]2[C@@H](O)[C@H](O[C@@H]3[C@H](O)C(C)(C)C[C@H]4C5=CC[C@@H]6[C@@]7(C)CC[C@H](O[C@@H]8O[C@H](C(=O)O)[C@@H](O)[C@H](O)[C@H]8O[C@@H]8O[C@H](CO)[C@H](O)[C@H](O)[C@H]8O[C@@H]8O[C@H](CO)[C@@H](O)[C@H](O)[C@H]8O)[C@](C)(CO)[C@@H]7CC[C@@]6(C)[C@]5(C)CC[C@@]34C)OC[C@@H]2O)[C@H](OC(C)=O)[C@@H](OC(C)=O)[C@@H]1OC(C)=O [Soyasaponin Ab] |  |  |  |  |  |  |  | 104 | 104 | 106 | 96.8 | 5
